Reference: patent publication US9018216B2, “Solid forms of (R)-2-(5-(2-(3-ethylureido)-6-fluoro-7-(tetrahydrofuran-2-yl)-1H-benzo[d]imidazol-5-yl)pyrimidin-2-yl)propan-2-yl dihydrogen phosphate and salts thereof” (priority 2012, dated 2015)
Converted amounts (≈) assume the structure as drawn. Structures can show the parent of a compound that is named as a salt. Where two headings read alike, the source gives them in different places.

What was measured:
[1] = system: Staphylococcus aureus ATCC 29213; test: microbe, parasite or virus in culture; type: cell-based; conditions: Staphylococcus aureus, ATCC29213, Staphylococcus aureus ATCC 29213; Protocol 1; read-out: MIC
[2] = Stability of the solid forms (net increase in total impurities at 40 C/30% RH); type: physicochemical; conditions: 15 days
[3] = Seven-day oral (gavage) toxicity and toxicokinetics study in rats; type: in vivo, Crl:CD(SD) rats; conditions: for Mean food consumption: Compound 13 once daily 100 or 200 mg/kg, Compound 23A twice daily 300 mg/kg, different intervals of the study, not considered adverse; for adverse observations or effects on mean body weight / dose levels without adverse toxicity within the scope of the study / NOEL (No-Observable-Effect-Level) / exposures for different dosage levels: male rats; for adverse observations or effects on mean body weight / dose levels without adverse toxicity within the scope of the study: 7 days oral gavage; for NOEL (No-Observable-Effect-Level): once a day for 7 days orally via gavage; for exposures for different dosage levels: oral gavage, toxicokinetics; for histopathological findings: any dose regimen
Text: Crl:CD(SD) rats were obtained from Charles River Laboratories of Stone Ridge, N.Y. The animals were laboratory bred and experimentally naïve. Rats were chosen because they are a species that is commonly used for nonclinical toxicity evaluations.
Forty rats (20 noncannulated males and 20 males with jugular vein cannulas) were ordered. From these animals, 15 noncannulated males and 15 cannulated males were used. Animals were as uniform in age as possible. The rats were prepubertal to young adult, approximately 9 weeks of age at initiation of dosing. Their supplier-calculated birth date was retained in the study records. The weight range for the animals at the time of allocation to groups was 218.5-306.3 g.
Animals received the test article or vehicle by oral gavage for 7 consecutive days and were terminated the day following completion of dosing. The first day of dosing was designated as Day 1 of the study. The animals were evaluated for changes in clinical signs, body weight, and other parameters as described below.
The vehicle and test article were administered by oral gavage once daily for 7 consecutive days at a dose volume of 10 mL/kg body weight for Group A and Groups B-D, respectively. The test article and vehicle were administered by oral gavage twice daily, approximately 8 hours apart, for 7 consecutive days at a dose volume of 10 mL/kg body weight for Group E and Group F, respectively. The actual volume administered to each animal was calculated and adjusted based on the most recent body weight of each animal.
During the treatment period, daily cageside observations were made and recorded predose and postdose (following the first dose only). The postdosing observations made during treatment occurred at the following times based on Cmax/Tmax for the two compounds from previous studies:
Prior to start of dosing, body weights were measured for randomization on Day 1. During the treatment, body weights were measured on Day 1 and Day 7. In addition, fasted body weights were measured prior to necropsy for calculation of organ/body weight ratios.
Throughout the study, food consumption was measured daily starting 3 days prior to start of dosing.
Blood samples for evaluation of hematology, coagulation, and serum chemistry parameters were collected from all animals from the retro-orbital plexus (under CO2/O2 anesthesia, for the main study animals) or jugular vein cannula (for the toxicokinetic animals) prior to necropsy. Due to residual heparin used to keep the cannulas patent for the toxicokinetic animals, coagulation samples from these rats, were not able to be analyzed. The animals were fasted overnight prior to blood collection. On the day of blood collection for clinical pathology analyses, the animals were not necropsied until after the blood was collected and the samples judged to be acceptable by the clinical pathology group.
On the 1st and 7th day of dosing, blood samples (approximately 0.5 mL/sample) were collected from the jugular vein cannula for all toxicokinetic animals at the timepoints listed below into K3EDTA-containing tubes. […] Prior to each collection, a small sample of blood (with heparin blocking solution) was removed from the cannula and discarded. A new syringe was placed on the cannula, and the protocol-required sample was taken. The syringe with the blood sample was removed, and a new syringe with saline attached to the cannula. Blood volume was replaced with an equal volume of saline and then blocking solution placed in the cannula. Each animal was returned to its cage until the next collection timepoint.
For all animals euthanized at scheduled necropsies, the kidneys, liver, and prostate gland were weighed. Following weighing, an approximate 1 gram sample of liver and kidney was weighed, transferred to Precellys 7 mL CK28 Tissue Homogenizing tubes (Cat. No. 0904-01), snap-frozen, and analyzed. […]

[4] = system: M. tuberculosis Erdman ATCC 35801; test: Mycobacterium tuberculosis serum shift MIC assay (Protocol 5); type: cell-based
[5] = Rat oral pharmacokinetic study; type: in vivo, Sprague Dawley rats; conditions: 0.5% MC, plasma analyte
Text: (§1) Plasma concentration vs. time data was subjected to noncompartmental pharmacokinetic (PK) analysis.

[6] = Monkey IV pharmacokinetic study; conditions: Compound W IV 5 mg/kg, D5W, plasma analyte
Description: Animals had free access to food and water before and after dosing.
Blood samples (approximately 0.25 mL each) were collected via a carotid artery catheter prior to dosing and at 0 (predose), 5 min, 10 min, 0.25, 0.5, 1, 2, 3, 4, 6, 8, 12, 24, 48 hours postdose. Each blood sample was collected into a tube that was kept on wet ice and contained potassium EDTA as the anticoagulant. Plasma was separated and stored at approximately −70° C. until analysis.
Plasma concentration vs. time data were subjected to noncompartmental pharmacokinetic (PK) analysis.

[7] = Oral range finding toxicity and toxicokinetic study in male Cynomolgus monkeys; type: in vivo, Cynomolgus monkeys (Macaca Fascicularis)
Text: Cynomolgus monkeys (Macaca Fascicularis) were obtained from Primus Bio-Resources Inc. of PinCourt, Quebec, Canada. Cynomolgus monkeys were chosen because they are a non-rodent species that is commonly used for nonclinical toxicity evaluations.
Eight (2 naive and 6 non-naïve) males were used in the study. The animals were young adults and weighed between 2 to 4 kg at the onset of dosing.
The first day of dosing was designated as Day 1 of the study. The actual volume administered to each animal was calculated and adjusted based on the most recent body weight of each animal.
Cage-side clinical signs (ill health, behavioral changes etc.) were recorded at least once daily during the study.
Body weights were recorded for all animals prior to group assignment and on Days 1 (prior to dosing), 3 and 7 as well as terminally prior to necropsy (fasted).
Electrocardiograms (bipolar limb leads I, II and III, and augmented unipolar leads aVR, aVL and aVF) were obtained for all monkeys once during the pre-treatment period and again on Day 7 (post-dosing).
The tracings were assessed for gross changes indicative of cardiac electrical dysfunction. The potential presence of abnormalities involving heart rate (lead II), sinus and atrioventricular rhythm or conductivity were determined. Heart rate, PR interval, QRS duration, QT and QTc intervals values were measured.
A series of 7 blood samples (approximately 0.5 mL each) were collected from each monkey on Days 1 and 7 at the following time points: predose, 30 minutes and 2, 3, 6, 12 and 24 hours post-dose. For this purpose, each monkey was bled by venipuncture and the samples were collected into tubes containing the anticoagulant, K2EDTA. Tubes were placed on wet ice until ready for processing.
Laboratory investigations (hematology, coagulation, clinical chemistry and urinalysis) were performed on all animals prior to start of treatment and prior to termination on Day 8.
A necropsy with tissue collection was conducted on all animals terminated during the study. The necropsy included examination of:
For all animals, all tissues indicated above were embedded in paraffin, sectioned and stained with hematoxylin and eosin and examined by light microscopy.

[8] = Monkey oral pharmacokinetic study; type: in vivo, cynomolgus monkeys; conditions: 0.5% MC, plasma analyte
Text: as §1

[9] = Rat IV pharmacokinetic study; conditions: D5W, plasma analyte
[10] = system: M. tuberculosis ATCC 35801 (strain Erdman); test: Mouse M. tuberculosis (Erdman) 28 day lung infection model; type: in vivo, M. tuberculosis; host Balb/c mice; conditions: 28 days
M. tuberculosis H37Rv = conditions: cited from earlier work
[11] = M. tuberculosis Erdman ATCC 35801
[12] = M. tuberculosis Erdman ATCC 35801 with Mouse Serum
[13] = doses up to 200 mg/kg/day, 7 days
[14] = rats, 300 mg/kg twice a day, compared to controls treated twice a day
[15] = Table 23a, 10 mg/kg BID oral gavage
[16] = Table 23a, 30 mg/kg BID oral gavage
[17] = Table 23a, 100 mg/kg BID oral gavage

Compound: CCNC(=O)Nc1nc2cc(-c3cnc(C(C)(C)OP(=O)([O-])[O-])nc3)c(F)c([C@H]3CCCO3)c2[nH]1.[Na+].[Na+] [Amorphous di-Na salt, disodium (R)-2-(5-(2-(3-ethylureido)-6-fluoro-7-(tetrahydrofuran-2-yl)-1H-benzo[d]imidazol-5-yl)pyrimidin-2-yl)propan-2-yl phosphate]
- MIC [1]: 4 µg/mL
- Net % increase in total impurities [2]: 1.74%

Compound: CCNC(=O)Nc1nc2cc(-c3cnc(C(C)(C)O)nc3)cc([C@H]3CCCO3)c2[nH]1 [Compound 13, 1-ethyl-3-[5-[2-(1-hydroxy-1-methyl-ethyl)pyrimidin-5-yl]-7-[(2R)-tetrahydrofuran-2-yl]-1H-benzimidazol-2-yl]urea]
- Mean food consumption [3]: reduced
- adverse observations or effects on mean body weight [3]: No adverse observations or effects on mean body weight
- dose levels without adverse toxicity within the scope of the study [3]: up to 200 mg/kg/day
- NOEL (No-Observable-Effect-Level) [3]: 200 mg/kg
- exposures for different dosage levels [3]: dose related
- histopathological findings ([3]; rats): No test article-related histopathological findings
- MIC [4, 11]: 0.045 µg/mL
- MIC [4, 12]: 2 µg/mL

Compound: CCNC(=O)Nc1nc2cc(-c3cnc(C(C)(C)O)nc3)c(F)c([C@H]3CCCO3)c2[nH]1 [Compound 23, 1-ethyl-3-[6-fluoro-5-[2-(1-hydroxy-1-methyl-ethyl)pyrimidin-5-yl]-7-[(2R)-tetrahydrofuran-2-yl]-1H-benzimidazol-2-yl]urea]
- AUCextrap ([5]; Compound W oral 3 mg/kg): 314 ng·h/mL
- AUCextrap ([5]; Compound W oral 30 mg/kg): 22600 ng·h/mL
- AUCextrap ([5]; Compound W oral 100 mg/kg): 77400 ng·h/mL
- AUCextrap [6]: 3810 ng·h/mL
- clinical signs, body weights, electrocardiography, clinical pathology, organ weights [7, 13]: no clinical signs, or changes in body weights, electrocardiography parameters, clinical pathology parameters, or organ weights
- macroscopic or microscopic findings [7, 13]: no macroscopic or microscopic findings
- no observed effect level (NOEL) ([7]; male Cynomolgus monkeys, oral gavage once per day for 7 days): 200 mg/kg/day
- exposures for different dosage levels ([7]; male Cynomolgus monkeys, oral gavage, toxicokinetics): dose related
- AUCextrap ([8]; Compound W PO 30 mg/kg): 24800 ng·h/mL
- AUCextrap ([8]; Compound W PO 100 mg/kg): 76900 ng·h/mL
- AUCextrap ([8]; Compound W PO 300 mg/kg): 155000 ng·h/mL
- AUCextrap ([9]; Compound W IV 1 mg/kg): 310 ng·h/mL
- Cl_obs ([9]; Compound W IV 1 mg/kg): 54.9 mL/min/kg
- Vss_obs ([9]; Compound W IV 1 mg/kg): 3.8 L/kg
- t1/2 ([9]; Compound W IV 1 mg/kg): 1.8 h
- AUCextrap ([9]; Compound W IV 5 mg/kg): 3060 ng·h/mL
- Cl_obs ([9]; Compound W IV 5 mg/kg): 27.3 mL/min/kg
- Vss_obs ([9]; Compound W IV 5 mg/kg): 4.08 L/kg
- t1/2 ([9]; Compound W IV 5 mg/kg): 3.6 h

Compound: CCNC(=O)Nc1nc2cc(-c3cnc(C(C)(C)O)nc3)c(F)c([C@H]3CCCO3)c2[nH]1 [Compound 23A, methanesulfonic acid salt of 1-ethyl-3-[6-fluoro-5-[2-(1-hydroxy-1-methyl-ethyl)pyrimidin-5-yl]-7-[(2R)-tetrahydrofuran-2-yl]-1H-benzimidazol-2-yl]urea]
- Mean food consumption [3]: reduced
- adverse observations or effects on mean body weight [3]: No adverse observations or effects on mean body weight
- dose levels without adverse toxicity within the scope of the study [3]: ≤ 600 mg/kg/day
- NOEL (No-Observable-Effect-Level) [3]: 100 mg/kg
- exposures for different dosage levels [3]: dose related
- AST [3, 14]: statistically higher
- mean ALT [3, 14]: statistically higher
- mean calcium ion concentration (CA) [3, 14]: statistically lower
- histopathological findings ([3]; rats): No test article-related histopathological findings
- MIC [4, 11]: 0.03 µg/mL
- MIC [4, 12]: 0.5 µg/mL
- Average Lung Burden [10, 15]: 5.08 Log cfu/lungs
- Log Reduction vs. Early Control [10, 15]: −0.10 Log
- Log Reduction vs. Late Control [10, 15]: 0.13 Log
- Average Lung Burden [10, 16]: 4.11 Log cfu/lungs
- Log Reduction vs. Early Control [10, 16]: 0.86 Log
- Log Reduction vs. Late Control [10, 16]: 1.09 Log
- Average Lung Burden [10, 17]: 3.22 Log cfu/lungs
- Log Reduction vs. Early Control [10, 17]: 1.76 Log
- Log Reduction vs. Late Control [10, 17]: 1.98 Log
- reduction of bacterial burdens versus the early control ([10]; doses of 30 and 100 mg/kg): 0.7-1.5 logs

Compound: COc1c(N2C[C@@H]3CCCN[C@@H]3C2)c(F)cc2c(=O)c(C(=O)O)cn(C3CC3)c12 [Moxifloxacin, reference compound]
- Average Lung Burden ([10]; Table 23a, 100 mg/kg QD): 2.94 Log cfu/lungs
- Log Reduction vs. Early Control ([10]; Table 23a, 100 mg/kg QD): 2.04 Log
- Log Reduction vs. Late Control ([10]; Table 23a, 100 mg/kg QD): 2.26 Log
- Log Reduction vs. Early Control ([10]; Table 23b, 100 mg/kg QD): 2.04 Log
- Log Reduction vs. Late Control ([10]; Table 23b, 100 mg/kg QD): 1.42 Log
- Median Lung Burden ([10]; Table 23b, 100 mg/kg QD): 2.94 Log cfu/lungs

Compound: NC(=O)c1cnccn1 [Pyrazinamide]
- MIC (M. tuberculosis H37Rv; normal pH): 250 µg/mL (≈ 2030 µM)
- MIC (M. tuberculosis H37Rv; pH 6.0): 50 µg/mL (≈ 406 µM)
